The values that follow come from ChEMBL document CHEMBL1144334, “Synthesis and structure-activity relationships of isoxazole carboxamides as growth hormone secretagogue receptor antagonists” (Bioorg Med Chem Lett, 2005).

Each structure is given as a SMILES string.

For assay [1], the target named is T1, Growth hormone secretagogue receptor type 1 (Homo sapiens, UniProt Q92847). As to the kind of experiment: Inhibition of ghrelin-induced increase of intracellular [Ca2+] in CHO K cell FLIPR assay. It is filed as functional, cell-based.
Assay [2] has as its target T1, Growth hormone secretagogue receptor type 1. As to the kind of experiment: Inhibition of binding to human growth hormone secretagogue receptor.
Assay [3] has as its system Rattus norvegicus. Nature of the assay: Oral bioavailability in rat. It is filed as functional, organism-based.
For assay [4], the species on record is Rattus norvegicus. Nature of the assay: Rate of metabolism measured in rat liver microsomes for 30 min. For orientation: Microsomes from liver hold many membrane-bound enzymes, among them those of drug oxidation.

T1 sequence (Q92847 whole entry): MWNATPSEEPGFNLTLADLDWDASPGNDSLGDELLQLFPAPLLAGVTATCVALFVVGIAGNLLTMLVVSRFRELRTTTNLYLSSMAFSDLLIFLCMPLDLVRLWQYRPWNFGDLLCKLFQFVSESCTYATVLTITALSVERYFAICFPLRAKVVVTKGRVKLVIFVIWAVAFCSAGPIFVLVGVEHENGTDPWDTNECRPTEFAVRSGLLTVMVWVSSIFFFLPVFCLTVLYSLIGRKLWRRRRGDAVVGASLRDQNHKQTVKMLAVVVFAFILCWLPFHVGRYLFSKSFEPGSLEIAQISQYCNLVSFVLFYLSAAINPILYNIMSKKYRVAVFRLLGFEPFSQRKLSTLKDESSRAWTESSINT

As for `CCN(CC)c1ccc(NC(=O)c2c(-c3ccccc3OC)noc2C)cc1`, the values for the concentration for half-maximal inhibition (IC50) in assay [1] and in assay [2] were 6800 nM and 4000 nM, respectively.
Regarding `Cc1onc(-c2c(Cl)cccc2Cl)c1C(=O)Nc1ccccc1C(=O)NCc1ccc2c(c1)OCO2`, the figures for the IC50 in assay [1] and in assay [2] were 4900 nM and 350 nM, respectively.
Regarding `CCN(CC)c1ccc(NC(=O)c2c(-c3c(Cl)cccc3Cl)noc2C)c(C)c1`, the IC50 (commonly the concentration at which inhibition is half-maximal) in assay [1] worked out at 39 nM; in assay [2], 37 nM. In assay [3], the bioavailability worked out at 1%.
Regarding `CCN(CC)c1ccc(NC(=O)c2c(-c3ccccc3[N+](=O)[O-])noc2C)cc1`, the half-inhibitory concentration (IC50) came out at 620 nM in assay [1] and 550 nM in assay [2].
In assay [2], `Cc1onc(-c2c(Cl)cccc2Cl)c1C(=O)Nc1ccc(N2CCCCC2)cc1` registered an IC50 greater than 10000 nM.
Regarding `CCN(CC)c1ccc(NC(=O)c2c(-c3ccccc3Br)noc2C)cc1`, the 50% inhibitory concentration (IC50) came out at 280 nM in assay [1] and 340 nM in assay [2].
Take `CCN(CC)c1ccc(NC(=O)c2c(-c3c(Cl)cccc3Cl)noc2C)cc1Cl`: the IC50 in assay [2] was greater than 10000 nM.
Still for that read-out and setting: the result for `CCN(CC)Cc1ccc(NC(=O)c2c(-c3c(Cl)cccc3Cl)noc2C)cc1` reads greater than 10000 nM.
For the compound `CCN(CC)c1ccc(NC(=O)c2c(-c3c(Cl)cccc3Cl)noc2C)cc1`, the bioavailability in assay [3] came to 4%. In addition, the Rate of metabolism in assay [4] worked out at 800 pM/mg/min.
On to `CCN(CC)C(=O)c1ccccc1NC(=O)c1c(-c2c(Cl)cccc2Cl)noc1C`, for which the IC50 in assay [1] was 2500 nM; in assay [2], 1900 nM.
With `CCN(CC)c1ccc(NC(=O)c2c(-c3c(Cl)cccc3Cl)noc2C)cc1C`, the IC50 is greater than 10000 nM in assay [1] and greater than 100 nM in assay [2].
`CCc1cc(N(CC)CC)ccc1NC(=O)c1c(-c2c(Cl)cccc2Cl)noc1C`: the 50% inhibitory concentration (IC50) in assay [1] worked out at 41 nM; in assay [2], 370 nM.
Taken in the same sequence, the figures for `CCN(CCO)c1ccc(NC(=O)c2c(-c3c(Cl)cccc3Cl)noc2C)cc1` were 3100 nM and 9200 nM.
Take `CCN(CC)c1ccc(NC(=O)c2c(-c3ccccc3-c3ccccc3)noc2C)cc1`: the IC50 in assay [1] was 6300 nM; in assay [2], 1300 nM.
With `Cc1onc(-c2c(Cl)cccc2Cl)c1C(=O)Nc1ccccc1CC1c2ccccc2CCN1C` (centres undefined), the IC50 came out at 1700 nM in assay [1] and 980 nM in assay [2].
For the compound `CCN(CC)c1ccc(NC(=O)c2c(-c3c(Cl)cccc3Cl)noc2C)c(OC)c1`, the IC50 in assay [1] came to 2900 nM; in assay [2], 600 nM.
Consider `CCN(CC)c1ccc(NC(=O)c2c(-c3ccccc3)noc2C)cc1`, for which the IC50 was determined as 7600 nM in assay [1] and 8200 nM in assay [2].
In assay [2], `CCN(CC)c1ccc(NC(=O)c2c(-c3cccc(Cl)c3)noc2C)cc1` showed an IC50 of 18500 nM. In other words, the double-digit micromolar range.
As to `Cc1onc(-c2c(Cl)cccc2Cl)c1C(=O)Nc1ccccc1C(=O)N1CCCCC1`, the IC50 stood at 2300 nM in assay [1] and 2200 nM in assay [2].
Compound `CCN(CC)c1ccc(NC(=O)c2c(-c3c(Cl)cccc3Cl)noc2CCC2OCCCO2)cc1` registered an IC50 in assay [1] of 14 nM.
`O=C(Nc1ccccc1C(=O)N1CCCCC1)c1c(-c2c(Cl)cccc2Cl)noc1CCC1OCCCO1`: the results for the IC50 in assay [1] and in assay [2] were 7400 nM and 7500 nM, respectively.
In assay [2], `CCC(CC)c1ccc(NC(=O)c2c(-c3c(Cl)cccc3Cl)noc2C)cc1` displayed an IC50 greater than 10000 nM.
Consider `CCN(C)c1ccc(NC(=O)c2c(-c3c(Cl)cccc3Cl)noc2C)cc1`, for which the IC50 in assay [1] amounted to 4700 nM; in assay [2] it was 5500 nM.
For `CCN(CC)c1ccc(NC(=O)c2c(-c3ccc(Cl)cc3)noc2C)cc1`, the IC50 in assay [1] came out at 6000 nM; in assay [2] it was 7100 nM.
Consider `CCN(CC)c1ccc(NC(=O)c2c(-c3c(Cl)cccc3Cl)noc2C)c(C(F)(F)F)c1`, for which the IC50 in assay [1] is greater than 10000 nM; in assay [2], 4100 nM.
For `CCNc1ccc(NC(=O)c2c(-c3c(Cl)cccc3Cl)noc2C)cc1`, in assay [2], the IC50 is greater than 10000 nM.
Turning to `CCCN(CC)c1ccc(NC(=O)c2c(-c3c(Cl)cccc3Cl)noc2C)cc1`, the IC50 worked out at 510 nM in assay [1] and 410 nM in assay [2].
The matching figures for `CCN(CC)c1ccc(NC(=O)c2c(-c3c(Cl)cccc3Cl)noc2CCC2OCCCO2)c(C)c1`: 10 nM and 9 nM.
As for `CCN(C(C)=O)c1ccc(NC(=O)c2c(-c3c(Cl)cccc3Cl)noc2C)cc1`, in assay [2], the IC50 was greater than 10000 nM.
`Cc1onc(-c2c(Cl)cccc2Cl)c1C(=O)Nc1ccccc1C(=O)NCc1ccccc1`: the half-maximal inhibitory concentration (IC50) in assay [1] is 10500 nM; in assay [2] it was 1200 nM.
Consider `Cc1onc(-c2c(Cl)cccc2Cl)c1C(=O)Nc1ccccc1C(=O)N1CCCCCC1`, for which the IC50 in assay [1] is 510 nM; in assay [2] it was 860 nM.
`CCN(CC)c1ccc(NC(=O)c2c(-c3c(Cl)cccc3Cl)noc2C)c(C#N)c1`: the IC50 in assay [1] was 4500 nM; in assay [2] it was 9000 nM.
`CCN(CC)c1ccc(NC(=O)c2c(-c3ccccc3Cl)noc2C)cc1`: the IC50 in assay [1] came to 250 nM; in assay [2] it was 690 nM.
